Source: PMC10178848, “Modulating fast skeletal muscle contraction protects skeletal muscle in animal models of Duchenne muscular dystrophy” (The Journal of Clinical Investigation, 2023)

System: mdx mouse EDL muscle
Experiment: Phosphoprotein array analysis (Cell Signaling Phospho Antibody Array)
Conditions: phospho/total, T vs C
Experimental: mdx mouse EDL muscle was prepared for ex vivo analysis as described (n = 5). Muscles were incubated for 1 hour with DMSO or EDG-5506 (5 μM) and then flash frozen in liquid nitrogen. Tissue preparation and analysis were performed as recommended by the manufacturer (Cell Signaling Phospho Antibody Array, Full Moon Biosystems).

How did the “Ratio (T/C): Integrin beta-3 (Phospho-Tyr773) to total Integrin beta-3 (Ab-773)” value turn out when O=c1ccc(-c2cnc(OCC(F)(F)F)nc2)nn1Cc1cncc(F)c1 [EDG-5506] was run?
The value was 0.8566.

What about the “Ratio (T/C): Interferon-gamma receptor alpha (Phospho-Tyr457) to total Interferon-alpha/beta receptor alpha chain (Ab-466)” value of the same compound?
The value was 0.992.

What about the “Ratio (T/C): JAK2 (Phospho-Tyr221) to total JAK2 (Ab-1007)” value of the same compound?
Its value is 0.5849.

And the “Ratio (T/C): JunB (Phospho-Ser259) to total JunB (Ab-259)” value?
The value was 0.7783.

What about the “Ratio (T/C): LKB1 (Phospho-Thr189) to total LKB1 (Ab-334)” value of the same compound?
The value was 1.099.

What about the “Ratio (T/C): LYN (Phospho-Tyr507) to total LYN (Ab-507)” value of the same compound?
Its value is 1.819.

And the “Ratio (T/C): Lamin A/C (Phospho-Ser392) to total Lamin A/C (Ab-392)” value?
Its value is 0.4365.

And the “Ratio (T/C): MDM2 (Phospho-Ser166) to total MDM2 (Ab-166)” value?
Its value is 0.7195.

And the “Ratio (T/C): MEK1 (Phospho-Ser217) to total MEK1 (Ab-291)” value?
The value was 0.8093.

What about the “Ratio (T/C): MEK1 (Phospho-Ser221) to total MEK1 (Ab-291)” value of the same compound?
The value was 1.481.

What about the “Ratio (T/C): MITF (Phospho-Ser73) to total MITF (Ab-73)” value of the same compound?
The value was 0.8065.

What about the “Ratio (T/C): MSK1 (Phospho-Ser376) to total MSK1 (Ab-360)” value of the same compound?
The value was 1.21.

And the “Ratio (T/C): Myc (Phospho-Ser62) to total Myc (Ab-58)” value?
The value was 0.9423.

What about the “Ratio (T/C): NFkB-p65 (Phospho-Ser311) to total NFkB-p65 (Ab-529)” value of the same compound?
The value was 0.8783.

And the “Ratio (T/C): NFkB-p65 (Phospho-Ser529) to total NFkB-p65 (Ab-529)” value?
The value was 0.8263.

And the “Ratio (T/C): NFkB-p100/p52 (Phospho-Ser865) to total NFkB-p100/p52 (Ab-865)” value?
The value was 1.159.

And the “Ratio (T/C): NFkB-p105/p50 (Phospho-Ser337) to total NFkB-p105/p50 (Ab-927)” value?
Its value is 1.219.

What about the “Ratio (T/C): P38 MAPK (Phospho-Thr180/Tyr182) to total P38 MAPK (Ab-182)” value of the same compound?
The value was 0.2071.

What about the “Ratio (T/C): P70S6K (Phospho-Ser424) to total P70S6K (Ab-229)” value of the same compound?
The value was 0.7495.

What about the “Ratio (T/C): P70S6K (Phospho-Thr421) to total P70S6K (Ab-229)” value of the same compound?
Its value is 1.055.

And the “Ratio (T/C): P73 (Phospho-Tyr99) to total P73 (Ab-99)” value?
Its value is 1.0107.

What about the “Ratio (T/C): P90RSK (Phospho-Thr359/Ser363) to total P90RSK (Ab-359/363)” value of the same compound?
The value was 0.8912.

What about the “Ratio (T/C): PDK1 (Phospho-Ser241) to total PDK1 (Ab-241)” value of the same compound?
Its value is 0.9138.

What about the “Ratio (T/C): PLCG1 (Phospho-Tyr783) to total PLCG1 (Ab-783)” value of the same compound?
Its value is 1.902.

And the “Ratio (T/C): PLK1 (Phospho-Thr210) to total PLK1 (Ab-210)” value?
The value was 0.3997.

What about the “Ratio (T/C): PP1 alpha (Phospho-Thr320) to total PP1 alpha (Ab-320)” value of the same compound?
Its value is 0.867.

And the “Ratio (T/C): PP2A-alpha (Phospho-Tyr307) to total PP2A-alpha (Ab-307)” value?
Its value is 0.7589.

And the “Ratio (T/C): PPAR-gamma (Phospho-Ser112) to total PPAR-gamma (Ab-112)” value?
The value was 0.8451.

What about the “Ratio (T/C): PTEN (Phospho-Ser380/Thr382/Thr383) to total PTEN (Ab-380)” value of the same compound?
The value was 0.6925.

What about the “Ratio (T/C): RSK1/2/3/4 (Phospho-Ser221/227/218/232) to total RSK1/2/3/4 (Ab-221/227/218/232)” value of the same compound?
The value was 1.05.

And the “Ratio (T/C): Raf1 (Phospho-Ser259) to total Raf1 (Ab-43)” value?
Its value is 0.9472.

What about the “Ratio (T/C): Rb (Phospho-Ser608) to total Rb (Ab-807)” value of the same compound?
The value was 0.5194.

And the “Ratio (T/C): Rb (Phospho-Ser807) to total Rb (Ab-807)” value?
The value was 0.4329.

What about the “Ratio (T/C): RelB (Phospho-Ser552) to total RelB (Ab-552)” value of the same compound?
Its value is 0.7768.

What about the “Ratio (T/C): SHP-2 (Phospho-Tyr542) to total SHP-2 (Ab-542)” value of the same compound?
The value was 0.9242.

What about the “Ratio (T/C): SRF (Phospho-Ser99) to total SRF (Ab-99)” value of the same compound?
The value was 0.6381.

And the “Ratio (T/C): STAT2 (Phospho-Tyr690) to total STAT2 (Ab-690)” value?
The value was 1.1086.

And the “Ratio (T/C): STAT3 (Phospho-Tyr705) to total STAT3 (Ab-705)” value?
The value was 0.8721.

And the “Ratio (T/C): STAT5B (Phospho-Ser731) to total STAT5B (Ab-731)” value?
Its value is 1.008.

And the “Ratio (T/C): STAT6 (Phospho-Thr645) to total STAT6 (Ab-645)” value?
Its value is 0.7953.

And the “Ratio (T/C): SYK (Phospho-Tyr348) to total SYK (Ab-525)” value?
Its value is 0.9191.

What about the “Ratio (T/C): Shc (Phospho-Tyr349) to total Shc (Ab-349)” value of the same compound?
Its value is 1.943.

And the “Ratio (T/C): Smad1 (Phospho-Ser187) to total Smad1 (Ab-465)” value?
The value was 1.9576.

And the “Ratio (T/C): Smad2 (Phospho-Ser467) to total Smad2 (Ab-255)” value?
The value was 0.3873.

What about the “Ratio (T/C): Smad2/3 (Phospho-Thr8) to total Smad2 (Ab-255)” value of the same compound?
The value was 0.779.

What about the “Ratio (T/C): Smad3 (Phospho-Ser213) to total Smad3 (Ab-425)” value of the same compound?
Its value is 2.4313.

What about the “Ratio (T/C): Src (Phospho-Tyr418) to total Src (Ab-418)” value of the same compound?
The value was 0.4536.

And the “Ratio (T/C): Synuclein alpha (Phospho-Tyr136) to total Synuclein alpha (Ab-125)” value?
Its value is 1.009.

And the “Ratio (T/C): Tau (Phospho-Ser235) to total Tau (Ab-235)” value?
The value was 0.4913.

What about the “Ratio (T/C): Tau (Phospho-Ser396) to total Tau (Ab-235)” value of the same compound?
Its value is 0.4515.

And the “Ratio (T/C): Trk B (Phospho-Tyr515) to total Trk B (Ab-515)” value?
Its value is 0.8791.

And the “Ratio (T/C): VEGFR2 (Phospho-Tyr1175) to total VEGFR2 (Ab-1214)” value?
The value was 0.7882.

And the “Ratio (T/C): VEGFR2 (Phospho-Tyr1214) to total VEGFR2 (Ab-1214)” value?
Its value is 1.1348.

What about the “Ratio (T/C): Zap-70 (Phospho-Tyr319) to total Zap-70 (Ab-319)” value of the same compound?
The value was 0.9346.

What about the “Ratio (T/C): c-Jun (Phospho-Ser73) to total c-Jun (Ab-243)” value of the same compound?
The value was 0.8772.

What about the “Ratio (T/C): eEF2K (Phospho-Ser366) to total eEF2K (Ab-366)” value of the same compound?
The value was 0.5517.

And the “Ratio (T/C): eIF2A (Phospho-Ser51) to total eIF2A (Ab-51)” value?
Its value is 1.082.

What about the “Ratio (T/C): eNOS (Phospho-Ser615) to total eNOS (Ab-1179)” value of the same compound?
Its value is 1.215.

And the “Ratio (T/C): mTOR (Phospho-Ser2481) to total mTOR (Ab-2481)” value?
Its value is 1.125.

What about the “Ratio (T/C): p44/42 MAP Kinase (Phospho-Tyr204) to total p44/42 MAP Kinase (Ab-202)” value of the same compound?
The value was 0.9379.

What about the “Ratio (T/C): p53 (Phospho-Ser9) to total p53 (Ab-315)” value of the same compound?
The value was 0.8012.

And the “Ratio (T/C): p53 (Phospho-Ser15) to total p53 (Ab-315)” value?
The value was 0.1195.

What about the “Ratio (T/C): p53 (Phospho-Ser315) to total p53 (Ab-315)” value of the same compound?
Its value is 0.641.
